This note sets out measurements from patent publication US9499550B2 (BRISTOL-MYERS SQUIBB COMPANY, priority 2012, dated 2016).

The EC50 is the concentration giving half of the maximal effect.

The test system of test [1] is HCV genotype 1a (H77 strain) replicon in HUH-7 cells. The test is described as follows: HCV replicon luciferase reporter assay, genotype 1a. The conditions noted are these: Hepatitis C virus, Huh-7, 72 h, HCV genotype 1a replicon luciferase assay, 3 days incubation, range class, read-out: LE_1a (EC50, range). The test is classed as cell-based. In a few lines: (§1)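 Replicon inhibition for both genotypes was measured as Renilla luciferase signal (EnduRen, 7.5 μM final, 2 h) after 3-day, 37° C exposure of replicon-bearing HUH-7 cells in 4% FCS DMEM, 0.5% DMSO. The 1b construct carries S1179I; the 1a H77 construct carries P1496L and S2204I. Twenty-point, 3-fold dilutions were fitted four-parametrically for EC50, and CC50 was taken from multiplexed Cell Titer-Blue.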

The test system of test [2] is HCV genotype 1b (Con1) replicon in HUH-7 cells. The test is described as follows: HCV replicon luciferase reporter assay, genotype 1b. The format is cell-based. The settings on record: Hepatitis C virus, Huh-7, 72 h, HCV genotype 1b replicon luciferase assay, 3 days incubation, range class, read-out: LE_1b (EC50, range). In short, it runs like this:
as §1

SMILES strings stand for the structures.

Regarding `COc1cnc(O[C@@H]2C[C@H]3C(=O)N[C@]4(C(=O)NS(=O)(=O)C5(C)CC5)C[C@H]4/C=C\CC[C@@H](C)C[C@@H](C)[C@H](NC(=O)OC(C)(C)C(F)(F)F)C(=O)N3C2)c2ccc(N(C)C)cc12` [Compound 3138, 1,1,1-trifluoro-2-methylpropan-2-yl((2R,6S,7R,9R,13aS,14aR,16aS,Z)-2-((6-(dimethylamino)-4-methoxyisoquinolin-1-yl)oxy)-7,9-dimethyl-14a-(((1-methylcyclopropyl)sulfonyl)carbamoyl)-5,16-dioxo-1,2,3,5,6,7,8,9,10,11,13a,14,14a,15,16,16a-hexadecahydrocyclopropa[e]pyrrolo[1,2-a][1,4]diazacyclopentadecin-6-yl)carbamate], the EC50 in test [1] and in test [2] was less than 5.46 nM each time.

As for `CCOc1ccc2c(O[C@@H]3C[C@H]4C(=O)N[C@]5(C(=O)NS(=O)(=O)C6(C)CC6)C[C@H]5/C=C\CC[C@H](C)C[C@@H](C)[C@H](NC(=O)OC(C)(C)C(F)(F)F)C(=O)N4C3)ncc(OC)c2c1` [Compound 3139, 1,1,1-trifluoro-2-methylpropan-2-yl((2R,6S,7R,9S,13aS,14aR,16aS,Z)-2-((6-ethoxy-4-methoxyisoquinolin-1-yl)oxy)-7,9-dimethyl-14a-(((1-methylcyclopropyl)sulfonyl)carbamoyl)-5,16-dioxo-1,2,3,5,6,7,8,9,10,11,13a,14,14a,15,16,16a-hexadecahydrocyclopropa[e]pyrrolo[1,2-a][1,4]diazacyclopentadecin-6-yl)carbamate], the EC50 in test [1] and in test [2] was less than 5.46 nM throughout.

With `CCOc1ccc2c(O[C@@H]3C[C@H]4C(=O)N[C@]5(C(=O)NS(=O)(=O)C6(C)CC6)C[C@H]5/C=C\CC[C@@H](C)C[C@@H](C)[C@H](NC(=O)OC(C)(C)C(F)(F)F)C(=O)N4C3)ncc(OC)c2c1` [Compound 3140, 1,1,1-trifluoro-2-methylpropan-2-yl((2R,6S,7R,9R,13aS,14aR,16aS,Z)-2-((6-ethoxy-4-methoxyisoquinolin-1-yl)oxy)-7,9-dimethyl-14a-(((1-methylcyclopropyl)sulfonyl)carbamoyl)-5,16-dioxo-1,2,3,5,6,7,8,9,10,11,13a,14,14a,15,16,16a-hexadecahydrocyclopropa[e]pyrrolo[1,2-a][1,4]diazacyclopentadecin-6-yl)carbamate], the EC50 in test [1] and in test [2] was less than 5.46 nM throughout.

With `COc1cnc(O[C@@H]2C[C@H]3C(=O)N[C@]4(C(=O)NS(=O)(=O)C5(CF)CC5)C[C@H]4/C=C\CC[C@H](C)C[C@@H](C)[C@H](NC(=O)OC(C)(C)C)C(=O)N3C2)c2ccc(N(C)C)cc12` [Compound 3141, tert-butyl ((2R,6S,7R,9S,13aS,14aR,16aS,Z)-2-((6-(dimethylamino)-4-methoxyisoquinolin-1-yl)oxy)-14a-(((1-(fluoromethyl)cyclopropyl)sulfonyl)carbamoyl)-7,9-dimethyl-5,16-dioxo-1,2,3,5,6,7,8,9,10,11,13a,14,14a,15,16,16a-hexadecahydrocyclopropa[e]pyrrolo[1,2-a][1,4]diazacyclopentadecin-6-yl)carbamate], the EC50 in test [1] and in test [2] was less than 5.46 nM each time.

For the molecule `COc1cnc(O[C@@H]2C[C@H]3C(=O)N[C@]4(C(=O)NS(=O)(=O)C5(CF)CC5)C[C@H]4/C=C\CC[C@@H](C)C[C@@H](C)[C@H](NC(=O)OC(C)(C)C)C(=O)N3C2)c2ccc(N(C)C)cc12` [Compound 3142, tert-butyl ((2R,6S,7R,9R,13aS,14aR,16aS,Z)-2-((6-(dimethylamino)-4-methoxyisoquinolin-1-yl)oxy)-14a-(((1-(fluoromethyl)cyclopropyl)sulfonyl)carbamoyl)-7,9-dimethyl-5,16-dioxo-1,2,3,5,6,7,8,9,10,11,13a,14,14a,15,16,16a-hexadecahydrocyclopropa[e]pyrrolo[1,2-a][1,4]diazacyclopentadecin-6-yl)carbamate], the concentration for a half-maximal effect (EC50) in test [1] and in test [2] was less than 5.46 nM each time.

With `COc1cnc(O[C@@H]2C[C@H]3C(=O)N[C@]4(C(=O)NS(=O)(=O)C5(CF)CC5)C[C@H]4/C=C\CC[C@H](C)C[C@@H](C)[C@H](NC(=O)OC(C)(C)C(F)(F)F)C(=O)N3C2)c2ccc(N(C)C)cc12` [Compound 3143, 1,1,1-trifluoro-2-methylpropan-2-yl((2R,6S,7R,9S,13aS,14aR,16aS,Z)-2-((6-(dimethylamino)-4-methoxyisoquinolin-1-yl)oxy)-14a-(((1-(fluoromethyl)cyclopropyl)sulfonyl)carbamoyl)-7,9-dimethyl-5,16-dioxo-1,2,3,5,6,7,8,9,10,11,13a,14,14a,15,16,16a-hexadecahydrocyclopropa[e]pyrrolo[1,2-a][1,4]diazacyclopentadecin-6-yl)carbamate], the concentration for a half-maximal effect (EC50) in test [1] and in test [2] was less than 5.46 nM each time.

For the molecule `COc1cnc(O[C@@H]2C[C@H]3C(=O)N[C@]4(C(=O)NS(=O)(=O)C5(CF)CC5)C[C@H]4/C=C\CC[C@@H](C)C[C@@H](C)[C@H](NC(=O)OC(C)(C)C(F)(F)F)C(=O)N3C2)c2ccc(N(C)C)cc12` [Compound 3144, 1,1,1-trifluoro-2-methylpropan-2-yl((2R,6S,7R,9R,13aS,14aR,16aS,Z)-2-((6-(dimethylamino)-4-methoxyisoquinolin-1-yl)oxy)-14a-(((1-(fluoromethyl)cyclopropyl)sulfonyl)carbamoyl)-7,9-dimethyl-5,16-dioxo-1,2,3,5,6,7,8,9,10,11,13a,14,14a,15,16,16a-hexadecahydrocyclopropa[e]pyrrolo[1,2-a][1,4]diazacyclopentadecin-6-yl)carbamate], the EC50 in test [1] and in test [2] was less than 5.46 nM in each case.

For the molecule `COc1cnc(O[C@@H]2C[C@H]3C(=O)N[C@]4(C(=O)NS(=O)(=O)C5(CF)CC5)C[C@H]4/C=C\CC[C@H](C)C[C@@H](C)[C@H](NC(=O)OC(C)(C)C)C(=O)N3C2)c2ccc(F)cc12` [Compound 3145, tert-butyl ((2R,6S,7R,9S,13aS,14aR,16aS,Z)-2-((6-fluoro-4-methoxyisoquinolin-1-yl)oxy)-14a-(((1-(fluoromethyl)cyclopropyl)sulfonyl)carbamoyl)-7,9-dimethyl-5,16-dioxo-1,2,3,5,6,7,8,9,10,11,13a,14,14a,15,16,16a-hexadecahydrocyclopropa[e]pyrrolo[1,2-a][1,4]diazacyclopentadecin-6-yl)carbamate], the EC50 in test [1] and in test [2] was 4.82 to 103 nM in each case.

With `COc1cnc(O[C@@H]2C[C@H]3C(=O)N[C@]4(C(=O)NS(=O)(=O)C5(CF)CC5)C[C@H]4/C=C\CC[C@@H](C)C[C@@H](C)[C@H](NC(=O)OC(C)(C)C)C(=O)N3C2)c2ccc(F)cc12` [Compound 3146, tert-butyl ((2R,6S,7R,9R,13aS,14aR,16aS,Z)-2-((6-fluoro-4-methoxyisoquinolin-1-yl)oxy)-14a-(((1-(fluoromethyl)cyclopropyl)sulfonyl)carbamoyl)-7,9-dimethyl-5,16-dioxo-1,2,3,5,6,7,8,9,10,11,13a,14,14a,15,16,16a-hexadecahydrocyclopropa[e]pyrrolo[1,2-a][1,4]diazacyclopentadecin-6-yl)carbamate], the 50% effective concentration (EC50) in test [1] and in test [2] was less than 5.46 nM each time.

In the case of `COc1ccc2c(O[C@@H]3C[C@H]4C(=O)N[C@]5(C(=O)NS(=O)(=O)C6CC6)C[C@H]5/C=C\CC[C@H](C)C[C@@H](C)[C@H](NC(=O)OC(C)(C)C)C(=O)N4C3)nccc2c1F` [Compound 3147, tert-butyl ((2R,6S,7R,9S,13aS,14aR,16aS,Z)-14a-((cyclopropylsulfonyl)carbamoyl)-2-((5-fluoro-6-methoxyisoquinolin-1-yl)oxy)-7,9-dimethyl-5,16-dioxo-1,2,3,5,6,7,8,9,10,11,13a,14,14a,15,16,16a-hexadecahydrocyclopropa[e]pyrrolo[1,2-a][1,4]diazacyclopentadecin-6-yl)carbamate], the results for the EC50 in test [1] and in test [2] were 4.82 to 103 nM and less than 5.46 nM, respectively.

`COc1ccc2c(O[C@@H]3C[C@H]4C(=O)N[C@]5(C(=O)NS(=O)(=O)C6CC6)C[C@H]5/C=C\CC[C@@H](C)C[C@@H](C)[C@H](NC(=O)OC(C)(C)C)C(=O)N4C3)nccc2c1F` [Compound 3148, tert-butyl ((2R,6S,7R,9R,13aS,14aR,16aS,Z)-14a-((cyclopropylsulfonyl)carbamoyl)-2-((5-fluoro-6-methoxyisoquinolin-1-yl)oxy)-7,9-dimethyl-5,16-dioxo-1,2,3,5,6,7,8,9,10,11,13a,14,14a,15,16,16a-hexadecahydrocyclopropa[e]pyrrolo[1,2-a][1,4]diazacyclopentadecin-6-yl)carbamate]: the EC50 in test [1] and in test [2] was less than 5.46 nM throughout.

For the molecule `COc1ccc2c(O[C@@H]3C[C@H]4C(=O)N[C@]5(C(=O)NS(=O)(=O)C6CC6)C[C@H]5/C=C\CC[C@H](C)C[C@@H](C)[C@H](NC(=O)OC(C)(C)C(F)(F)F)C(=O)N4C3)nccc2c1F` [Compound 3149, 1,1,1-trifluoro-2-methylpropan-2-yl((2R,6S,7R,9S,13aS,14aR,16aS,Z)-14a-((cyclopropylsulfonyl)carbamoyl)-2-((5-fluoro-6-methoxyisoquinolin-1-yl)oxy)-7,9-dimethyl-5,16-dioxo-1,2,3,5,6,7,8,9,10,11,13a,14,14a,15,16,16a-hexadecahydrocyclopropa[e]pyrrolo[1,2-a][1,4]diazacyclopentadecin-6-yl)carbamate], the values for the EC50 in test [1] and in test [2] were 4.82 to 103 nM and less than 5.46 nM, respectively.
